Consider 20 molecules from patent publication US12344623B2, “Thiazolopyridine derivatives as adenosine receptor antagonists” (Merck Patent GmbH, priority 2019, dated 2025).

What all share (assay type): cell-based
In assay [1] the target is T1, human A2A receptor (Homo sapiens, UniProt P29274). Put plainly: Human T cells, endogenous A2A receptor, cAMP, agonist NECA. Conditions: read-out: hTcell data, cAMP, IC50. As to the method: The endogenous functional activity of the Gs-coupled human A2A receptor was measured in T cells, where this receptor is highly expressed. Determination of receptor activity was done by quantification of cAMP, which is a second messenger for adenosine receptors.
T1 sequence (P29274 whole entry): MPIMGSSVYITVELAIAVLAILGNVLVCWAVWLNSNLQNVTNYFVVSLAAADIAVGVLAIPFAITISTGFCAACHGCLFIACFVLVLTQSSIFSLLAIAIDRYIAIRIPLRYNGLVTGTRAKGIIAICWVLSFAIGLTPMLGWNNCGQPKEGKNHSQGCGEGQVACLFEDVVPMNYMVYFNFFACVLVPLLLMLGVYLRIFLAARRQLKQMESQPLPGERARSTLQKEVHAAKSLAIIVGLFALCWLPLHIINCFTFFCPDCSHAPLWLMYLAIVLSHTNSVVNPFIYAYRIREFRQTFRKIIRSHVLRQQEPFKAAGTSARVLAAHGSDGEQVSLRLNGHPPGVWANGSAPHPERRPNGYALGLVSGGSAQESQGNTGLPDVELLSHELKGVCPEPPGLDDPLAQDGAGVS
In short, human pan T cells were isolated from human PBMC (MACS Pan T Cell Isolation Kit, Miltenyi Biotec) that have been derived from fresh whole blood. The T cells were seeded in 384-well microtiter plates and treated with test compounds. […] Finally, HTRF reagents (cAMP Femto Kit, CisBio) were added to the wells, and after 1 h cellular cAMP levels were determined using the ENVISION (Perkin Elmer) plate reader.
The obtained raw data were normalized against the inhibitor control and the neutral control (DMSO) and the normalized data were fitted using Genedata Screener software.

The target in a further assay is T2, human A2B receptor (Homo sapiens, UniProt P29275).
T2 construct: expressed in transfected cells; host or cells: HEK293
T2 sequence (P29275 1-332): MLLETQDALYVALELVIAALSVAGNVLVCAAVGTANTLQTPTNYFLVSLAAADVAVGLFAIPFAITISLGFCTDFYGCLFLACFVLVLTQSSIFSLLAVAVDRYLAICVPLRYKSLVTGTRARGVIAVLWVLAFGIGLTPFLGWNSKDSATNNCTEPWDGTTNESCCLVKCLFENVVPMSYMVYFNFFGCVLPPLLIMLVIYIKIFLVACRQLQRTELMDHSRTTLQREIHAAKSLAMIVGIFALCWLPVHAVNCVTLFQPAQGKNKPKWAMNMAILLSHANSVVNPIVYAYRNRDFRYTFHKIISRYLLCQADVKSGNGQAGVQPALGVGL
Put plainly: Functional A2B receptor activity, recombinant HEK293 cells, cAMP (HTRF), agonist NECA. The note with it: read-out: Functional A2B receptor activity, HEK293, cAMP, IC50. Put shortly:
(§1)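 Forskolin, test compounds and agonist were added together to the cells and incubated for 30 min. Cellular cAMP was then quantified by HTRF. Raw signals were normalized to an inhibitor control and a neutral DMSO control, and the normalized data were curve-fitted.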
A general note: TR-FRET usually uses a lanthanide donor and a delayed reading to cut background.

In a further assay the target is T3, human A1 receptor (Homo sapiens, UniProt P30542).
T3 construct: expressed in transfected cells; host or cells: CHO
T3 sequence (P30542 1-326): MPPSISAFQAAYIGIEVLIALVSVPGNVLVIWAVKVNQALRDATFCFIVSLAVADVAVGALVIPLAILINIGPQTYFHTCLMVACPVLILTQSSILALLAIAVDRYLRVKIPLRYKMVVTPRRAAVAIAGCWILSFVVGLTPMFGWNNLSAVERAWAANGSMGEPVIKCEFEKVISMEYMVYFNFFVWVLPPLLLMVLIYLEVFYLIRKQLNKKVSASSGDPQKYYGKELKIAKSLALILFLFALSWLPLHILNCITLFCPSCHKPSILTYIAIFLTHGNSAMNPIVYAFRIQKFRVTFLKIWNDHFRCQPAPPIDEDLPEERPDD
As to the kind of experiment: Functional A1 receptor activity, recombinant CHO cells, cAMP (HTRF), forskolin, agonist CPA. Conditions: recombinant CHO cells, forskolin, agonist CPA, read-out: Functional A1 receptor activity, CHO, cAMP, IC50. Put shortly:
(§2)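 Gi-coupled readout: CHO cells expressing human A1 or A3 receptor were treated with forskolin, test compound and agonist (CPA for A1, IB-MECA for A3) for 30 min; cellular cAMP was then measured by HTRF. Data were normalized to inhibitor and DMSO controls and curve-fitted.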

The next assay concerns the target T4, human A3 receptor (Homo sapiens, UniProt P0DMS8).
T4 construct: expressed in transfected cells; host or cells: CHO
T4 sequence (P0DMS8 1-318): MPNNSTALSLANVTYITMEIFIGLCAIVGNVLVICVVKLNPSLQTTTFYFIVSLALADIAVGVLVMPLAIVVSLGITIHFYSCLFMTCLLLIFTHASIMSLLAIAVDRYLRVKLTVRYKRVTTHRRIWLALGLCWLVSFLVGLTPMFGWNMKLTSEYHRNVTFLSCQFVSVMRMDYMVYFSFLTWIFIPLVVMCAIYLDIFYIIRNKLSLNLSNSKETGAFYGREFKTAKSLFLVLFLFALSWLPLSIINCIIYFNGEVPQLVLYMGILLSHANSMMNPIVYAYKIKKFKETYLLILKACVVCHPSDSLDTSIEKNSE
As to the kind of experiment: Functional A3 receptor activity, recombinant CHO cells, cAMP (HTRF), forskolin, agonist IB-MECA. Conditions: recombinant CHO cells, forskolin, agonist IB-MECA, read-out: Functional A3 receptor activity, CHO, cAMP, IC50. Put shortly:
as §2

Assay [2] addresses T1, human A2A receptor. Put plainly: Functional A2A receptor activity, recombinant HEK293 cells, cAMP (HTRF), agonist NECA. The arrangement: expressed in transfected cells; host or cells: HEK293. Conditions: read-out: Functional A2A receptor activity, HEK293, cAMP, IC50. Summed up: as §1

The structures appear in SMILES notation. Where two headings read alike, the source gives them in different places. Some results are limits rather than exact numbers.

For the molecule `COc1cnc(N2CCOCC2)c2sc(NC(=O)N3CCC(O)CC3)nc12`, the IC50 on human A2A receptor [1] is below 1 µM.

In the case of `COc1ccc(N2CCOCC2)c2sc(NC(=O)N3CCCCC3)nc12` [drawing 221], the IC50 at human A2A receptor [1] is below 1 µM.

Regarding `COc1cnc(N2CCOCC2)c2sc(NC(=O)N3CCCCC3)nc12` [drawing 222], the IC50 at human A2A receptor [1] is below 1 µM.

Take `COc1cnc(N2CCOCC2)c2sc(NC(=O)N3CCC4(CCCO4)CC3)nc12` [drawing 218]: on human A2A receptor [1], the IC50 was below 1 µM.

Turning to `COc1ncc(C2=CCOCC2)c2sc(NC(=O)Nc3ccc(N4N=C(C)CC4=O)cc3)nc12` [Compound 94, 3-[7-(3,6-dihydro-2H-pyran-4-yl)-4-methoxy-[1,3]thiazolo[4,5-c]pyridin-2-yl]-1-[4-(3-methyl-5-oxo-4,5-dihydro-1H-pyrazol-1-yl)phenyl]urea], the IC50 on human A2B receptor was below 0.1 µM; at human A1 receptor, above 1 µM; at human A3 receptor, above 1 µM; on human A2A receptor [2], below 0.01 µM.

In the case of `COc1cnc(N2CCOCC2)c2sc(NC(=O)N3CCCCC3)nc12` [drawing 192, reference compound], the IC50 on human A2B receptor is below 1 µM; at human A1 receptor (cAMP), above 1 µM; at human A3 receptor (cAMP), below 0.1 µM; at human A2A receptor [2] it was below 0.01 µM.

Take `COc1nc(F)c(C2CCOCC2)c2sc(NC(=O)N3CC[C@]4(CCCOC4)C3)nc12` [Compound 34, (R)-7-Oxa-2-aza-spiro[4.5]decane-2-carboxylic acid [6-fluoro-4-methoxy-7-(tetrahydro-pyran-4-yl)-thiazolo[4,5-c]pyridin-2-yl]-amide]: the IC50 at human A2B receptor was below 0.1 µM; on human A1 receptor, above 1 µM; at human A3 receptor, above 1 µM; on human A2A receptor [2] it was below 0.01 µM.

As for `COc1ncc(-c2cc(O)ccc2F)c2sc(NC(=O)N3CCC4(CCOCC4)C3)nc12` [Compound 150, 8-Oxa-2-aza-spiro[4.5]decane-2-carboxylic acid [7-(2-fluoro-5-hydroxy-phenyl)-4-methoxy-thiazolo[4,5-c]pyridin-2-yl]-amide], the IC50 at human A2B receptor was below 0.1 µM; on human A1 receptor, above 1 µM; at human A3 receptor, above 1 µM; on human A2A receptor [2] it was below 0.01 µM.

On to `COc1ncc(C2=CCOCC2)c2sc(NC(=O)N3CCC(N4C(=O)C=CC4=O)CC3)nc12` [Compound 88, N-[7-(3,6-dihydro-2H-pyran-4-yl)-4-methoxy-[1,3]thiazolo[4,5-c]pyridin-2-yl]-4-(2,5-dioxo-2,5-dihydro-1H-pyrrol-1-yl)piperidine-1-carboxamide], for which the IC50 was below 0.1 µM at human A2B receptor, above 1 µM on human A1 receptor, above 1 µM at human A3 receptor and below 0.01 µM on human A2A receptor [2].

`COc1ncc(C2COCCO2)c2sc(NC(=O)N3CCC4(CCOCC4)C3)nc12` (centres unmarked) [Compound 73, 8-Oxa-2-aza-spiro[4.5]decane-2-carboxylic acid (7-[1,4]dioxan-2-yl-4-methoxy-thiazolo[4,5-c]pyridin-2-yl)-amide]: the IC50 was below 0.1 µM on human A2B receptor, above 1 µM at human A1 receptor, above 1 µM on human A3 receptor and below 0.01 µM on human A2A receptor [2].

Take `COc1ncc(I)c2sc(NC(=O)N3CCC4(CCOCC4)C3)nc12` [Compound 171, 8-Oxa-2-aza-spiro[4.5]decane-2-carboxylic acid (7-iodo-4-methoxy-thiazolo[4,5-c]pyridin-2-yl)-amide]: the IC50 is below 0.1 µM at human A2B receptor, above 1 µM at human A1 receptor, above 1 µM at human A3 receptor and below 0.1 µM at human A2A receptor [2].

In the case of `COc1ccc(-c2cnn(C)c2)c2sc(NC(=O)c3ccnc(N4CCOCC4)c3)nc12` [reference compound], the IC50 at human A2B receptor is below 1 µM; on human A1 receptor (cAMP), below 1 µM; on human A3 receptor (cAMP), below 1 µM; at human A2A receptor [2] it was below 0.01 µM.

Take `COc1cnc(C2CCOCC2)c2sc(NC(=O)N3CCC(O)CC3)nc12` [drawing 190, reference compound]: the IC50 was below 1 µM on human A2B receptor, above 1 µM on human A1 receptor (cAMP), below 1 µM at human A3 receptor (cAMP) and below 0.1 µM on human A2A receptor [2].

Turning to `COCCOCCn1cc(-c2cnc(OC)c3nc(NC(=O)N4CCC5(CCOCC5)C4)sc23)cn1` [Compound 103, 8-Oxa-2-aza-spiro[4.5]decane-2-carboxylic acid (4-methoxy-7-{1-[2-(2-methoxy-ethoxy)-ethyl]-1H-pyrazol-4-yl}-thiazolo[4,5-c]pyridin-2-yl)-amide], the IC50 on human A2B receptor was below 0.1 µM; at human A1 receptor, below 1 µM; at human A3 receptor, above 1 µM; on human A2A receptor [2], below 0.01 µM.

For `COc1ncc(-c2ccccc2)c2sc(NC(=O)c3c[nH]cn3)nc12` [Compound 60, 1H-Imidazole-4-carboxylic acid (4-methoxy-7-phenyl-thiazolo[4,5-c]pyridin-2-yl)-amide], the IC50 at human A2B receptor is below 0.01 µM; at human A1 receptor it was below 1 µM; at human A3 receptor, below 1 µM; on human A2A receptor [2], below 0.01 µM.

In the case of `COc1ncc(-c2cccc(O)c2)c2sc(NC(=O)N3CCC4(CCOCC4)C3)nc12` [Compound 153, 8-Oxa-2-aza-spiro[4.5]decane-2-carboxylic acid [7-(3-hydroxy-phenyl)-4-methoxy-thiazolo[4,5-c]pyridin-2-yl]-amide], the half-inhibitory concentration (IC50) at human A2B receptor is below 0.01 µM; at human A1 receptor, below 1 µM; at human A3 receptor, above 1 µM; on human A2A receptor [2], below 0.01 µM.

Take `COc1ncc(C2=CCOCC2)c2sc(NC(=O)c3c[nH]c(-c4cccnc4)n3)nc12` [Compound 140, 2-Pyridin-3-yl-1H-imidazole-4-carboxylic acid [7-(3,6-dihydro-2H-pyran-4-yl)-4-methoxy-thiazolo[4,5-c]pyridin-2-yl]-amide]: the IC50 is below 0.1 µM at human A2B receptor, below 1 µM on human A1 receptor, above 1 µM at human A3 receptor and below 0.01 µM at human A2A receptor [2].

For `COc1ncc(C2CCCCC2)c2sc(NC(=O)N3CCC4(CCOCC4)C3)nc12` [Compound 62, 8-Oxa-2-aza-spiro[4.5]decane-2-carboxylic acid (7-cyclohexyl-4-methoxy-thiazolo[4,5-c]pyridin-2-yl)-amide], the IC50 was below 0.1 µM on human A2B receptor, above 1 µM on human A1 receptor, above 1 µM at human A3 receptor and below 0.01 µM on human A2A receptor [2].

Regarding `COc1ncc(C2=CCC(OC)CC2)c2sc(NC(=O)N3CC[C@@]4(CCCOC4)C3)nc12` (stereo partly drawn) [Compound 77, (5S)-N-[4-methoxy-7-(4-methoxycyclohex-1-en-1-yl)-[1,3]thiazolo[4,5-c]pyridin-2-yl]-7-oxa-2-azaspiro[4.5]decane-2-carboxamide], the IC50 on human A2B receptor is below 1 µM; at human A1 receptor, above 1 µM; on human A3 receptor it was above 1 µM; at human A2A receptor [2], below 0.01 µM.

In the case of `COc1ncc(C2=CCSCC2)c2sc(NC(=O)N3CCC4(CCOCC4)C3)nc12` [Compound 64, 8-Oxa-2-aza-spiro[4.5]decane-2-carboxylic acid [7-(3,6-dihydro-2H-thiopyran-4-yl)-4-methoxy-thiazolo[4,5-c]pyridin-2-yl]-amide], the IC50 on human A2B receptor was below 0.01 µM; on human A1 receptor, below 1 µM; at human A3 receptor, above 1 µM; on human A2A receptor [2] it was below 0.01 µM.

In general, IC50 refers to the concentration at which inhibition is half-maximal.
